{"source": "patent US20160067221A1", "about": "“USE OF ERGOTHIONEINE FOR INDUCING ACTIVITY OF NRF2 IN CELL” (China Medical University, priority 2014, published 2016)", "type_in_all_cases": "cell-based, human", "key": {"[1]": {"tested_on": "UVA-irradiated HaCaT cells", "assay": "Western blot of apoptosis-related proteins (Caspase-3, Caspase-9, Bax, Bcl-2)", "conditions": "125-500 nM 24 hours prior to UVA 15 J/cm^2, 4 hours", "experimental": "The apoptosis can induce DNA double-strand breaks to generate a DNA fragment, To examine the effect of the ergothioneine on the UVA-induced apoptosis, an apoptotic cell death is measured using a terminal deoxyucleotidyl transferase-meditated dUTP-fluorescein nick end-labeking (TUNEL) assay, and protein expressions of apoptosis-related proteins, Caspase-3, Caspase-9, Bax and Bcl-2, are measured using a Western blot analysis. Therefore, the aforementioned methods in this example can analyze whether pretreating with the ergothioneine improves the UVA-induced apoptosis. […] After incubation, the HaCaT cells are exposed to the UVA (15 J/cm^2), and then incubated for 4 hours. Then, the protein expressions of Caspase-3, Caspase-9, Bax and Bcl-2 are measured using the Western blot analysis. FIG. 6 illustrates the effect of the ergothioneine on the protein expressions of apoptosis-related proteins of the UVA-irradiated HaCaT cells. FIG. 6-(A) represents the Western blot analysis results. FIG. 6-(B) is the quantitative diagram of the protein expressions of Caspase-3 and Caspase-9. FIG. 6-(C) is the quantitative diagram of a Bax/Bcl-2 ratio."}, "[2]": {"tested_on": "Nrf2 knockdown HaCaT cells", "assay": "TUNEL apoptosis in siRNA-transfected HaCaT cells", "experimental": "(§1) The siRNA transfection includes steps as follows. The HaCaT cells are seeded in a 6-well plate with 4×10^5 cells/well and then maintained at 37° C. in the humidified atmosphere of 5% CO2 untill the time of the transfection. The day after reaching 40-60% confluence, the culture medium is replaced with 1 mL of FBS-free and antibiotic-free culture medium in each well, and the HaCaT cells are transfected with a siNrf2 or a control siRNA by using Lipofectamine 2000 (Invitrogen, U.S.A.) for 4-6 hours. After the incubation for 4-6 hours, the HaCaT cells are washed with the culture medium supplemented with 10% FBS 2-3 times, and then cultured in the culture medium supplemented with 10% FBS for 12-16 hours."}, "[3]": {"tested_on": "antioxidant response element (ARE)", "assay": "ARE luciferase gene reporter assay", "conditions": "HaCaT cells treated for 4 hours, vs untreated", "description": "The Nrf2 binds to the small Maf after translocating into the nucleus. […] Given that the ergothioneine treatment to the HaCaT cells can promote the Nrf2 translocating into the nucleus; this example next investigates whether the ARE transcriptional activity can be started by using a luciferase gene reporter assay. The luciferase gene reporter assay is transfected a plasmid containing the ARE gene and a luciferase gene into the HaCaT cells, wherein the luciferase gene is a reporter gene. An internal standard of the luciferase gene reporter assay is β-galactosidase, and a luminescence intensity is measured by Dual Light Kit (Applied Biosystems)."}, "[4]": {"tested_on": "Nrf2 knockdown HaCaT cells", "assay": "MTT cell viability in siRNA-transfected HaCaT cells", "conditions": "500 nM 24 hours, UVA 15 J/cm^2 4 hours", "experimental": "as §1\nThe HaCaT cells are incubated with 500 nM ergothioneine for 24 hours after the siRNA transfection."}, "[5]": {"tested_on": "UVA-irradiated HaCaT cells", "assay": "TUNEL assay (UVA-induced apoptosis)", "conditions": "500 nM 24 hours prior to UVA 15 J/cm^2, vs UVA alone", "experimental": "The apoptosis can induce DNA double-strand breaks to generate a DNA fragment, To examine the effect of the ergothioneine on the UVA-induced apoptosis, an apoptotic cell death is measured using a terminal deoxyucleotidyl transferase-meditated dUTP-fluorescein nick end-labeking (TUNEL) assay, and protein expressions of apoptosis-related proteins, Caspase-3, Caspase-9, Bax and Bcl-2, are measured using a Western blot analysis. Therefore, the aforementioned methods in this example can analyze whether pretreating with the ergothioneine improves the UVA-induced apoptosis. A chromosome breakage represents an initial stage of a […]. The TUNEL assay is based on a presence of nicks in the DNA which can be identified by terminal deoxynucleotidyl transferase (TdT) at 3′ OH ends, ad the 3′ OH ends bind to dUTPs that are secondarily labeled with a fluorescent marker. After a coloration, the cells suffered the apoptosis can be identified. The HaCaT cells are incubated with or without the ergothioneine for 24 hours, wherein the concentration of the ergothioneine is 500 nM. After incubation, the HaCaT cells are exposed to the UVA (15 J/cm^2), and then cultured for 4 hours, Then, the HaCaT cells are incubated with TUNEL reaction buffer. The stained cells are visualized using the fluorescence microscope and photographed. […] FIG. 5-(B) is the quantitative diagram of the TUNEL assay."}, "[6]": {"tested_on": "UVA-irradiated HaCaT cells", "assay": "Intracellular ROS generation (HDCF-DA / DCF fluorescence)", "experimental": "An exposure of the UVA will stimulate cells generating ROS. […] The HDCF-DA is a lipid-soluble fluorescent dye and has a cell membrane permeability. The HDCF-DA will bind to intracellular esterases to form a non-fluorescent 2′,7′-dichlorofluorescin (DCFH). The DCFH is subsequently oxidated by H2O2 to form a fluorescent 2′,7′-dichlorofluorescein (DCF), and then accumulated in a mitochondria. […] The HaCaT cells are subsequently incubated with or without the ergothioneine, and then maintained at 37° C. in a humidified atmosphere of 5% CO2 for 24 hours, wherein the concentration of the ergothioneine is 500 nM. Next, the HaCaT cells are washed with PBS three times, and then irradiated with the UVA (15 J/cm^2). After the UVA irradiation, the PBS is replaced with 1 mL of HDCF-DA (10 μM) in each well to react at 37° C. in the dark for 30 minutes. After the reaction, the fluorescent dye is removed, and the HaCaT cells are washed with PBS thrice to remove the remaining fluorescent dye. The intracellular ROS, as indicated by DCF fluorescence, is measured with the fluorescence microscope and photographed."}}}
{"smiles": "C[N+](C)(C)[C@@H](Cc1c[nH]c(=S)[nH]1)C(=O)[O-]", "note": "[ergothioneine, 2-mercapto histidine trimethylbetain]", "values": [{"measurement": "Bax/Bcl-2 ratio", "setting": "[1]", "value": "significantly reduced"}, {"measurement": "protein expression of Caspase-3", "setting": "[1]", "value": "significantly reduced"}, {"measurement": "protein expression of Caspase-9", "setting": "[1]", "value": "significantly reduced"}, {"measurement": "UVA-induced apoptosis (TUNEL)", "setting": "[2]; Nrf2 siRNA, ergothioneine pretreatment, UVA", "value": "unable to improve the UVA-induced apoptosis"}, {"measurement": "apoptosis (TUNEL)", "setting": "[2]; control siRNA, ergothioneine prior to UVA, vs UVA alone", "value": "significantly decreased"}, {"measurement": "luciferase activity derived from the ARE promoter", "setting": "[3]", "value": "increased"}, {"measurement": "UVA-induced cell death", "setting": "[4]; Nrf2 siRNA", "value": "unable to ameliorate the UVA-induced cell death"}, {"measurement": "UVA-induced cell death", "setting": "[4]; control siRNA", "value": "able to reduce a UVA-induced cell death"}, {"measurement": "amount of TUNEL fluorescence (apoptosis)", "setting": "[5]", "value": "enormously reduced"}, {"measurement": "DCF fluorescence (UVA-induced ROS generation)", "setting": "[6]; 500 nM 24 hours prior to 15 J/cm^2 UVA", "value": "ignificantly decreased"}, {"measurement": "ROS generation", "setting": "[6]; 500 nM alone, no UVA", "value": "non-effect"}]}
